Assay results from patent US10308959B2, “Methods, systems, and compositions relating to MiRNA-146a” (Henry Ford Health System, priority 2013, dated 2019).

Tests used:
Format in all cases: cell-based
[1] = test system: primary rat embryonic OPCs; test: MBP immunofluorescence cell counting in primary rat embryonic OPCs; details: Tβ4 100 ng/ml where used; DAPI positive cells as total
Protocol: (§1) Primary rat embryonic OPCs were isolated and prepared according to the method known to the skilled artisan. Briefly, on embryonic day 17, rat embryos were removed from a pregnant Wistar rat in a laminar flow hood. The cortices were dissected out by using microdissecting scissors, rinsed twice in Hank's buffered salt solution and dissociated after digesting with 0.01% trypsin and DNase at 37° C. for 15 min. The digested cells were washed twice, filtered through a 70 mm nylon cell strainer and plated with DMEM containing 20% fetal bovine serum (FBS) in poly-D-lysine coated T75 cell culture flasks (approximately 10 million cells per flask). The cells grew to confluence for 10 days and then were placed on the shaker at 200 r.p.m. at 37° C. for 1 h to remove microglial cells. Subsequently, the cells were left on the shaker for an additional 18-20 h to collect OPCs. The collected OPCs were plated in untreated Petri dishes for 1 h to remove contaminated microglia and astrocytes which attach to the Petri dish more efficiently than OPCs. The unattached OPCs were transferred onto poly-D,L-ornithine-coated Petri dishes at a cell density of 10^4 per/cm2 with a basal chemically defined medium (“BDM”) containing 10 ng/ml platelet-derived growth factor-alpha (“PDGF-AA”) and 10 ng/ml basic fibroblast growth factor (“bFGF”) for 7-10 days. […]

[2] = test system: mouse OPC cell line-N20.1; test: Western blot of MBP, TLR signaling mediators and MAPKs in N20.1 cells
Protocol: The mouse primary cultures of OPCs were conditionally immortalized by transformation with a temperature-sensitive large T-antigen into a mouse OPC cell line-N20.1 (21). N20.1 cells were provided by Dr. Anthony Campagnoni (University of California at Los Angeles). N20.1 cells were grown and maintained in Dulbecco's modified Eagle's medium (“DMEM”)/F12 with 1% fetal bovine serum (“FBS”) and G418 (100 μg/ml) at 37° C. For N20.1 cells, transient transfections were performed with Nucleofector kit according to the manufacturer's protocol (Amaxa, Germany). The cells (10^6) were mixed with 1 μg plasmid DNA or 100 pmol of siRNA/oligo nucleotides and pulsed according to the manufacturer's instruction. The transfected cells were immediately plated into Petri dishes with DMEM containing 1% FBS and incubated at 37° C. for days. Primary rat embryonic OPCs were transiently transfected with Lipofectamine (Invitrogen) overnight, according to the manufacturer's protocol (see Chew et al., J. Neuroscience 30(33): 11011-11027 (2010)). Amounts of DNA and siRNA/oligo nucleotides were used as recommended by the manufacturer. The control plasmid (pcDNA3) was used as a mock transfected control for miR-146a expression vector transfection, and control siRNA (Ambion, a random mixture of oligonucleotides) was used as a mock transfected control for both transfections with Tβ4siRNA and anti-miR-146a inhibitor nucleotides. The cells (10^4 cells/cm^2) were treated with 0, 25, 50, 100 ng/ml of Tβ4 (RegeneRx Biopharmaceuticals Inc., Rockville, Md.). The cells were incubated at 37° C. and fed every 2 days with fresh medium (DMEM containing 1% FBS for N20.1 cells and BDM for primary rat embryonic OPCs) with and without Tβ4 for 4 days. To test for LPS contamination in Tβ4, the cells were cultured in the presence of the LPS inhibitor polymyxin B (50 μg/ml) followed by treatment with Tβ4. Tβ4 (100 ng/ml) was boiled for 10 minutes in order to denature Tβ4 protein and was used as a negative control. Transfected cells (2×10^4 cells/cm2) including mock transfected controls were treated with and without 100 ng/ml of Tβ4 (RegeneRx Biopharmaceuticals Inc., Rockville, Md.) for 4 days and fresh medium was provided at day 2 with/without Tβ4.
Total protein extracts from the cells were prepared, as known to the skilled artisan. The protein extracts were separated by sodium dodecyl sulfate-polyacrylamide gel electrophoresis for Western blot analysis. For Western blot analysis, rabbit antiserum for MBP (1:200; Dako, Carpinteria, Calif.), monoclonal antibodies (1:1000) for p38MAPK, phosphorylated p38MAPK, c-JUN, phosphorylated c-JUN (1:1000; Upstate, Charlottesville, Va., USA), rabbit polyclonal antibodies (1:1000) for JNK1 and phosphorylated JNK1 (Promega Corporation), goat polyclonal TLR2, rabbit polyclonal TLR4, mouse monoclonal IRAK1 antibodies (1:1000), rabbit polyclonal TRAF6 antibodies (1:1000) mouse monoclonal β-actin antibodies (1:5000; Santa Cruz Biotechnology) and mouse monoclonal α-tubulin antibodies (1:5000; Sigma) were used. Donkey anti-goat, anti-rabbit, and anti-mouse horseradish peroxidase (1:5000; Jackson ImmunoResearch Labs, West Grove, Pa., USA) were used as secondary antibodies. Each experiment was repeated at least three times. The protein bands were quantified based on histogram analysis relative to gel loading marker α-tubulin.

[3] = test system: mouse OPC cell line-N20.1; test: QrtPCR of mRNA (MBP, p38MAPK) in N20.1 cells
Protocol: The mouse primary cultures of OPCs were conditionally immortalized by transformation with a temperature-sensitive large T-antigen into a mouse OPC cell line-N20.1 (21). N20.1 cells were provided by Dr. Anthony Campagnoni (University of California at Los Angeles). N20.1 cells were grown and maintained in Dulbecco's modified Eagle's medium (“DMEM”)/F12 with 1% fetal bovine serum (“FBS”) and G418 (100 μg/ml) at 37° C. For N20.1 cells, transient transfections were performed with Nucleofector kit according to the manufacturer's protocol (Amaxa, Germany). The cells (10^6) were mixed with 1 μg plasmid DNA or 100 pmol of siRNA/oligo nucleotides and pulsed according to the manufacturer's instruction. The transfected cells were immediately plated into Petri dishes with DMEM containing 1% FBS and incubated at 37° C. for days. Primary rat embryonic OPCs were transiently transfected with Lipofectamine (Invitrogen) overnight, according to the manufacturer's protocol (see Chew et al., J. Neuroscience 30(33): 11011-11027 (2010)). Amounts of DNA and siRNA/oligo nucleotides were used as recommended by the manufacturer. The control plasmid (pcDNA3) was used as a mock transfected control for miR-146a expression vector transfection, and control siRNA (Ambion, a random mixture of oligonucleotides) was used as a mock transfected control for both transfections with Tβ4siRNA and anti-miR-146a inhibitor nucleotides. The cells (10^4 cells/cm^2) were treated with 0, 25, 50, 100 ng/ml of Tβ4 (RegeneRx Biopharmaceuticals Inc., Rockville, Md.). The cells were incubated at 37° C. and fed every 2 days with fresh medium (DMEM containing 1% FBS for N20.1 cells and BDM for primary rat embryonic OPCs) with and without Tβ4 for 4 days. […]
After qrtPCR, agarose gel electrophoresis was performed to verify the quality of the qrtPCR products. No secondary products were detected. […] Values obtained from three independent experiments were analyzed relative to gene expression data using the 2^−ΔΔCT method.

[4] = test system: primary rat embryonic OPCs; test: QrtPCR of mRNA (MBP, p38MAPK) in primary rat embryonic OPCs
Protocol: (§2) Primary rat embryonic OPCs were isolated and prepared according to the method known to the skilled artisan. Briefly, on embryonic day 17, rat embryos were removed from a pregnant Wistar rat in a laminar flow hood. The cortices were dissected out by using microdissecting scissors, rinsed twice in Hank's buffered salt solution and dissociated after digesting with 0.01% trypsin and DNase at 37° C. for 15 min. The digested cells were washed twice, filtered through a 70 mm nylon cell strainer and plated with DMEM containing 20% fetal bovine serum (FBS) in poly-D-lysine coated T75 cell culture flasks (approximately 10 million cells per flask). The cells grew to confluence for 10 days and then were placed on the shaker at 200 r.p.m. at 37° C. for 1 h to remove microglial cells. Subsequently, the cells were left on the shaker for an additional 18-20 h to collect OPCs. The collected OPCs were plated in untreated Petri dishes for 1 h to remove contaminated microglia and astrocytes which attach to the Petri dish more efficiently than OPCs. The unattached OPCs were transferred onto poly-D,L-ornithine-coated Petri dishes at a cell density of 10^4 per/cm2 with a basal chemically defined medium (“BDM”) containing 10 ng/ml platelet-derived growth factor-alpha (“PDGF-AA”) and 10 ng/ml basic fibroblast growth factor (“bFGF”) for 7-10 days.
(§3) The mouse primary cultures of OPCs were conditionally immortalized by transformation with a temperature-sensitive large T-antigen into a mouse OPC cell line-N20.1 (21). N20.1 cells were provided by Dr. Anthony Campagnoni (University of California at Los Angeles). N20.1 cells were grown and maintained in Dulbecco's modified Eagle's medium (“DMEM”)/F12 with 1% fetal bovine serum (“FBS”) and G418 (100 μg/ml) at 37° C. For N20.1 cells, transient transfections were performed with Nucleofector kit according to the manufacturer's protocol (Amaxa, Germany). The cells (10^6) were mixed with 1 μg plasmid DNA or 100 pmol of siRNA/oligo nucleotides and pulsed according to the manufacturer's instruction. […]

[5] = test system: primary rat embryonic OPCs; test: Western blot of MBP, TLR signaling mediators and MAPKs in primary rat embryonic OPCs
Protocol: as §2
The mouse primary cultures of OPCs were conditionally immortalized by transformation with a temperature-sensitive large T-antigen into a mouse OPC cell line-N20.1 (21). N20.1 cells were provided by Dr. Anthony Campagnoni (University of California at Los Angeles). N20.1 cells were grown and maintained in Dulbecco's modified Eagle's medium (“DMEM”)/F12 with 1% fetal bovine serum (“FBS”) and G418 (100 μg/ml) at 37° C. For N20.1 cells, transient transfections were performed with Nucleofector kit according to the manufacturer's protocol (Amaxa, Germany). The cells (10^6) were mixed with 1 μg plasmid DNA or 100 pmol of siRNA/oligo nucleotides and pulsed according to the manufacturer's instruction. The transfected cells were immediately plated into Petri dishes with DMEM containing 1% FBS and incubated at 37° C. for days. Primary rat embryonic OPCs were transiently transfected with Lipofectamine (Invitrogen) overnight, according to the manufacturer's protocol (see Chew et al., J. Neuroscience 30(33): 11011-11027 (2010)). Amounts of DNA and siRNA/oligo nucleotides were used as recommended by the manufacturer. The control plasmid (pcDNA3) was used as a mock transfected control for miR-146a expression vector transfection, and control siRNA (Ambion, a random mixture of oligonucleotides) was used as a mock transfected control for both transfections with Tβ4siRNA and anti-miR-146a inhibitor nucleotides. The cells (10^4 cells/cm^2) were treated with 0, 25, 50, 100 ng/ml of Tβ4 (RegeneRx Biopharmaceuticals Inc., Rockville, Md.). The cells were incubated at 37° C. and fed every 2 days with fresh medium (DMEM containing 1% FBS for N20.1 cells and BDM for primary rat embryonic OPCs) with and without Tβ4 for 4 days. To test for LPS contamination in Tβ4, the cells were cultured in the presence of the LPS inhibitor polymyxin B (50 μg/ml) followed by treatment with Tβ4. Tβ4 (100 ng/ml) was boiled for 10 minutes in order to denature Tβ4 protein and was used as a negative control. […]

[6] = test system: mouse OPC cell line-N20.1; test: miR-146a quantification by qrtPCR in N20.1 cells
Protocol: The mouse primary cultures of OPCs were conditionally immortalized by transformation with a temperature-sensitive large T-antigen into a mouse OPC cell line-N20.1 (21). N20.1 cells were provided by Dr. Anthony Campagnoni (University of California at Los Angeles). N20.1 cells were grown and maintained in Dulbecco's modified Eagle's medium (“DMEM”)/F12 with 1% fetal bovine serum (“FBS”) and G418 (100 μg/ml) at 37° C. For N20.1 cells, transient transfections were performed with Nucleofector kit according to the manufacturer's protocol (Amaxa, Germany). The cells (10^6) were mixed with 1 μg plasmid DNA or 100 pmol of siRNA/oligo nucleotides and pulsed according to the manufacturer's instruction. The transfected cells were immediately plated into Petri dishes with DMEM containing 1% FBS and incubated at 37° C. for days. Primary rat embryonic OPCs were transiently transfected with Lipofectamine (Invitrogen) overnight, according to the manufacturer's protocol (see Chew et al., J. Neuroscience 30(33): 11011-11027 (2010)). […]
The cDNA for each miR and TaqMan assay were performed in triplicate according to the manufacturer's protocol specified in Applied Biosystems ViiA™ 7 Real-Time PCR System (Applied Biosystem). […] Values obtained from three independent experiments were analyzed relative to gene expression data using the 2^−ΔΔCT method.

mouse N20.1 cells = test: MBP immunofluorescence cell counting in N20.1 cells; details: Tβ4 100 ng/ml where used; DAPI positive cells as total
Protocol: as §3
Immunofluorescence staining was performed in N20.1 and primary rat embryonic OPC cells. These cells were fixed with 4% paraformaldehyde for 1 h, washed with PBS, blocked with 1% serum for 1 h and incubated with monoclonal antibodies of OPC marker—O4, (1:1000, Chemicon, Billerica, Mass., USA) and a polyclonal antibody against mature OL marker—MBP (1:200; Dako, Carpinteria, Calif.) at room temperature for one hour, rinsed with PBS and secondary antibodies labeled with cyanine fluorophore (Cy3—red fluorescence) for 1 h. The slides were counterstained with 4′,6-diamidino-2-phenylindole (DAPI—blue fluorescence) and examined under Fluorescent Illumination Microscope (Olympus IX71/IX51, Tokyo, Japan). […]

[7] = test system: primary rat embryonic OPCs; test: miR-146a quantification by qrtPCR in primary rat embryonic OPCs
Protocol: as §1

[8] = in the presence of polymyxin B (50 μg/ml), 50 and 100 ng/ml, 4 days
[9] = second miR named, sentence 'In contrast'

thymosin beta 4 (SDKPDMAEIEKFDKSKLKKTETQEKNPLPSKETIEQEKQAGES; listed as Homo sapiens) [Tβ4]
number of MBP positive OPCs [1]: significantly increased
expression and phosphorylation of p38MAPK [2]: induced
expression level of MBP (protein) [2]: increased
expression levels of IRAK1 and TRAF6 [2]: markedly reduced
expression of TLR2 and TLR4 [2]: no effect
phosphorylation of ERK1/2, JNK1 and c-Jun [2]: dose-dependently inhibited
increase in mRNA MBP expression ([3]; Tβ4 100 ng/ml where used): two-fold increase
expression of MBP, mRNA and protein levels [3, 8]: induced
increase in mRNA MBP expression ([4]; Tβ4 100 ng/ml where used): two-fold increase
expression of MBP, mRNA and protein levels [4, 8]: induced
expression and phosphorylation of p38MAPK [5]: induced
expression level of MBP (protein) [5]: increased
expression levels of IRAK1 and TRAF6 [5]: markedly reduced
expression of TLR2 and TLR4 [5]: no effect
phosphorylation of ERK1/2, JNK1 and c-Jun [5]: dose-dependently inhibited
expression of miR-146a ([6]; Tβ4 0 to 100 ng/ml, 4 days): increased in a dose dependent manner
miR-146a expression (data not shown) [6, 9]: no effect
number of MBP positive OPCs (mouse N20.1 cells): significantly increased
expression of miR-146a ([7]; Tβ4 0 to 100 ng/ml, 4 days): increased in a dose dependent manner
miR-146a expression (data not shown) [7, 9]: no effect
